Structures are written as SMILES.

What is called melting point is the temperature, or range, at which the solid turns liquid.

Regarding `CCc1nc2c(cnn2CC)c(NC2CCOCC2)c1CNC(=O)c1cccc(C(=O)NCc2ccc(F)c(-c3cccc(CN4CCN(CC)CC4)c3)c2)c1` [Example 202, N-{[1,6-Diethyl-4-(tetrahydro-2H-pyran-4-ylamino)-1H-pyrazolo[3,4-b]pyridin-5-yl]methyl}-N′-({3′-[(4-ethyl-1-piperazinyl)methyl]-6-fluoro-3-biphenylyl}methyl)-1,3-benzenedicarboxamide], the melting point lay in the range of 155 to 158 °C.

In turn, `CCc1nc2c(cnn2CC)c(NC2CCOCC2)c1CNC(=O)c1cc(C)cc(C(=O)NCc2cccc(-c3cccc(C=O)c3)c2)c1` came in with a melting point of 109 to 112 °C.

In turn, `CCc1nc2c(cnn2CC)c(NC2CCOCC2)c1CNC(=O)c1cccc(C(=O)NCc2ccc(Cl)c(-c3cccc(CN4CCN[C@@H](C)C4)c3)c2)c1` [Example 214, N-[(6-Chloro-3′-{[(3S)-3-methyl-1-piperazinyl]methyl}-3-biphenylyl)methyl]-N′-{[1,6-diethyl-4-(tetrahydro-2H-pyran-4-ylamino)-1H-pyrazolo[3,4-b]pyridin-5-yl]methyl}-1,3-benzenedicarboxamide] yielded a melting point of 117 to 120 °C.

On to `CCc1nc2c(cnn2CC)c(NC2CCOCC2)c1CNC(=O)c1cccc(C(=O)NCc2ccc(F)c(-c3cccc(CN4C[C@@H]5C[C@H]4CN5)c3)c2)c1` [Example 207, N-({3′-[(1S,4S)-2,5-Diazabicyclo [2.2.1]hept-2-ylmethyl]-6-fluoro-3-biphenylyl}methyl)-N′-{[1,6-diethyl-4-(tetrahydro-2H-pyran-4-ylamino)-1H-pyrazolo[3,4-b]pyridin-5-yl]methyl}-1,3-benzenedicarboxamide], for which the melting point fell in the range of 129 to 133 °C.

In turn, `CCc1nc2c(cnn2CC)c(NC2CCOCC2)c1CNC(=O)c1cc(C)cc(C(=O)NCc2ccc(C)c(-c3cccc(C=O)c3)c2)c1` displayed a melting point of 117 to 120 °C.

The compound `CCc1nc2c(cnn2CC)c(NC2CCOCC2)c1CNC(=O)c1cc(C)cc(C(=O)NCc2ccc(Cl)c(-c3cccc(C=O)c3)c2)c1` came in with a melting point of 153 to 156 °C.

Turning to `CCc1nc2c(cnn2CC)c(NC2CCOCC2)c1CNC(=O)c1cc(C)cc(C(=O)NCc2ccc(OC)c(-c3cccc(C=O)c3)c2)c1`, the melting point is 117 to 119 °C.

The compound `CCc1nc2c(cnn2CC)c(NC2CCOCC2)c1CNC(=O)c1cccc(C(=O)NCc2ccc(F)c(-c3cccc(CN4CCCCC4)c3)c2)c1` [Example 199, N-{[1,6-Diethyl-4-(tetrahydro-2H-pyran-4-ylamino)-1H-pyrazolo[3,4-b]pyridin-5-yl]methyl}-N′-{[6-fluoro-3′-(1-piperidinylmethyl)-3-biphenylyl]methyl}-1,3-benzenedicarboxamide] displayed a melting point of 128 to 131 °C.

With `CCc1nc2c(cnn2CC)c(NC2CCOCC2)c1CNC(=O)c1cccc(C(=O)NCc2ccc(F)c(-c3cccc(CN4C[C@H](C)NC[C@H]4C)c3)c2)c1` [Example 198, N-{[1,6-Diethyl-4-(tetrahydro-2H-pyran-4-ylamino)-1H-pyrazolo[3,4-b]pyridin-5-yl]methyl}-N′-[(3′-{[(2R,5S)-2,5-dimethyl-1-piperazinyl]methyl}-6-fluoro-3-biphenylyl)methyl]-1,3-benzenedicarboxamide], the melting point is 187 to 190 °C (dec.).

Turning to `CCc1nc2c(cnn2CC)c(NC2CCOCC2)c1CNC(=O)c1cccc(C(=O)NCc2ccc(Cl)c(-c3cccc(CN4CCN(C)CC4)c3)c2)c1` [Example 219, N-({6-Chloro-3′-[(4-methyl-1-piperazinyl)methyl]-3-biphenylyl}methyl)-N′-{[1,6-diethyl-4-(tetrahydro-2H-pyran-4-ylamino)-1H-pyrazolo[3,4-b]pyridin-5-yl]methyl}-1,3-benzenedicarboxamide], the melting point lay within 112 to 114 °C.

Turning to `CCc1nc2c(cnn2CC)c(NC2CCOCC2)c1CNC(=O)c1cccc(C(=O)NCc2ccc(Cl)c(-c3cccc(CN4CCN[C@@H](C)C4)c3)c2)c1` [Example 215, N-[(6-Chloro-3′-{[(3S)-3-methyl-1-piperazinyl]methyl}-3-biphenylyl)methyl]-N′-{[1,6-diethyl-4-(tetrahydro-2H-pyran-4-ylamino)-1H-pyrazolo[3,4-b]pyridin-5-yl]methyl}-1,3-benzenedicarboxamide], the melting point fell in the range of 116 to 118 °C.

As for `CCc1nc2c(cnn2CC)c(NC2CCOCC2)c1CNC(=O)c1cccc(C(=O)NCc2cc(Cl)cc(-c3cccc(CN4CCCN(C)CC4)c3)c2)c1` [Example 428, N-({5-Chloro-3′-[(4-methylhexahydro-1H-1,4-diazepin-1-yl)methyl]-3-biphenylyl}methyl)-N′-{[1,6-diethyl-4-(tetrahydro-2H-pyran-4-ylamino)-1H-pyrazolo[3,4-b]pyridin-5-yl]methyl}-1,3-benzenedicarboxamide], the melting point lay within 111 to 113 °C.

Take `CCc1nc2c(cnn2CC)c(NC2CCOCC2)c1CNC(=O)c1cc(C)cc(C(=O)NCc2cccc(-c3cccc(CC4CCNCC4)c3)c2)c1` [Example 426, N-{[1,6-Diethyl-4-(tetrahydro-2H-pyran-4-ylamino)-1H-pyrazolo[3,4-b]pyridin-5-yl]methyl}-5-methyl-N′-{[3′-(4-piperidinylmethyl)-3-biphenylyl]methyl}-1,3-benzenedicarboxamide]: the melting point is 130 to 132 °C.

With `CCc1nc2c(cnn2CC)c(NC2CCOCC2)c1CNC(=O)c1cccc(C(=O)NCc2ccc(OC)c(-c3cccc(CN4CCNCC4)c3)c2)c1` [Example 209, N-{[1,6-Diethyl-4-(tetrahydro-2H-pyran-4-ylamino)-1H-pyrazolo[3,4-b]pyridin-5-yl]methyl}-N′-{[6-(methyloxy)-3′-(1-piperazinylmethyl)-3-biphenylyl]methyl}-1,3-benzenedicarboxamide], the melting point was in the range of 138 to 140 °C.

Turning to `CCc1nc2c(cnn2CC)c(NC2CCOCC2)c1CNC(=O)c1cc(C)cc(C(=O)NCc2ccc(Cl)c(Br)c2)c1`, the melting point fell in the range of 212 to 214 °C.

Compound `CCc1nc2c(cnn2CC)c(NC2CCOCC2)c1CNC(=O)c1cccc(C(=O)NCc2ccc(C)c(-c3cccc(CN4C[C@@H]5C[C@H]4CN5)c3)c2)c1` [Example 197, N-({3′-[(1S,4S)-2,5-Diazabicyclo [2.2.1]hept-2-ylmethyl]-6-methyl-3-biphenylyl}methyl)-N′-{[1,6-diethyl-4-(tetrahydro-2H-pyran-4-ylamino)-1H-pyrazolo[3,4-b]pyridin-5-yl]methyl}-1,3-benzenedicarboxamide] displayed a melting point of 138 to 140 °C.

On to `CCc1nc2c(cnn2CC)c(NC2CCOCC2)c1CNC(=O)c1cccc(C(=O)NCc2ccc(C)c(-c3cccc(CN4CCN(C)CC4)c3)c2)c1` [Example 193, N-{[1,6-Diethyl-4-(tetrahydro-2H-pyran-4-ylamino)-1H-pyrazolo[3,4-b]pyridin-5-yl]methyl}-N′-({6-methyl-3′-[(4-methyl-1-piperazinyl)methyl]-3-biphenylyl}methyl)-1,3-benzenedicarboxamide], for which the melting point lay within 121 to 124 °C.

Compound `CCc1nc2c(cnn2CC)c(NC2CCOCC2)c1CNC(=O)c1cccc(C(=O)NCc2cc(Cl)cc(-c3cccc(CN4C[C@@H]5C[C@H]4CN5)c3)c2)c1` [Example 431, N-({5-Chloro-3′-[(1S,4S)-2,5-diazabicyclo [2.2.1]hept-2-ylmethyl]-3-biphenylyl}methyl)-N′-{[1,6-diethyl-4-(tetrahydro-2H-pyran-4-ylamino)-1H-pyrazolo[3,4-b]pyridin-5-yl]methyl}-1,3-benzenedicarboxamide] came in with a melting point of 130 to 133 °C.

For the origin of these results see patent publication US8067408B2, “Dual pharmacophores—PDE4-muscarinic antagonistics” (priority 2008, dated 2011).
